Test results published in article PMC8508963 (2021).

Assays:
Test in all cases: fluorescence titration and Job plot
[1] = system: m-tel24 (DNA, G4) TTGGGTTAGGGTTAGGGTTAGGGA; details: 100 mM K+ (KCl) plus 20 mM potassium phosphate; pH 7, 20 °C, Job total 2 µM; highest fluorescence; groove binding suggested by induced CD
[2] = system: M2 (DNA, G4) TAGGGACGGGCGGGCAGGGT; details: 100 mM K+ (KCl) plus 20 mM potassium phosphate; pH 7, 20 °C, Job total 2 µM; medium fluorescence enhancement
[3] = system: ds12 (DNA, duplex) CGCGAATTCGCG; details: 100 mM K+ (KCl) plus 20 mM potassium phosphate; pH 7, 20 °C, Job total 2 µM; lowest fluorescence enhancement

Measured: binding

CN(C)CCCNC(=O)c1ccc2[nH]c3c([nH]c2c1)c1c(=O)n(CCCN(C)C)c(=O)c2ccc4c(=O)n(CCCN(C)C)c(=O)c3c4c21
yes: all assays above
